From ChEMBL document CHEMBL4177740, “Selective inhibition of β-N-acetylhexosaminidases by thioglycosyl-naphthalimide hybrid molecules” (Bioorg Med Chem, 2018)
pKi: −log10 of the molar value.

Assays:
[1] = target: T1, Chitooligosaccharidolytic beta-N-acetylglucosaminidase (Ostrinia furnacalis) (UniProt Q06GJ0); assay: Inhibition of Ostrinia furnacalis Hex1 expressed in Pichia pastoris at 100 uM using 4-MU-GlcNAc as substrate measured after 30 mins by fluorescence assay relative to control
T1 sequence (whole entry): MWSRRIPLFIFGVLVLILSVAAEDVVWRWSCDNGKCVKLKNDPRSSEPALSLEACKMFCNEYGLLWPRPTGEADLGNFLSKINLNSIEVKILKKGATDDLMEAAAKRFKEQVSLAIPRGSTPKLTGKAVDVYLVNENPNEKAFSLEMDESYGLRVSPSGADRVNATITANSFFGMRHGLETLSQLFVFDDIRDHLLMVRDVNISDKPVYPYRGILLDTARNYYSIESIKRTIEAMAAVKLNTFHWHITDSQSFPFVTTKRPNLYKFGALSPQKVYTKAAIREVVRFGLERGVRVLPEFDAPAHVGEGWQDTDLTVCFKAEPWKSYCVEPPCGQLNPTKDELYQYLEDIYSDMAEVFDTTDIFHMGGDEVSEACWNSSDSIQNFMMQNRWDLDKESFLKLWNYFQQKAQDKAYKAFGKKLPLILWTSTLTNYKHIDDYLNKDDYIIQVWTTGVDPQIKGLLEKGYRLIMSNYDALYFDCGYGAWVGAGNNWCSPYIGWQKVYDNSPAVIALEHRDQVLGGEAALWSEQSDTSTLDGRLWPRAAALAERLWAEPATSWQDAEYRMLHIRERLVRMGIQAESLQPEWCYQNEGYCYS

[2] = target: T2, Protein O-GlcNAcase (Homo sapiens) (UniProt O60502); assay: Inhibition of recombinant human OGA expressed in Escherichia coli BL21(DE3) at 100 uM using 4-MU-GlcNAc as substrate measured after 30 mins by fluorescence assay relative to control
T2 sequence (whole entry): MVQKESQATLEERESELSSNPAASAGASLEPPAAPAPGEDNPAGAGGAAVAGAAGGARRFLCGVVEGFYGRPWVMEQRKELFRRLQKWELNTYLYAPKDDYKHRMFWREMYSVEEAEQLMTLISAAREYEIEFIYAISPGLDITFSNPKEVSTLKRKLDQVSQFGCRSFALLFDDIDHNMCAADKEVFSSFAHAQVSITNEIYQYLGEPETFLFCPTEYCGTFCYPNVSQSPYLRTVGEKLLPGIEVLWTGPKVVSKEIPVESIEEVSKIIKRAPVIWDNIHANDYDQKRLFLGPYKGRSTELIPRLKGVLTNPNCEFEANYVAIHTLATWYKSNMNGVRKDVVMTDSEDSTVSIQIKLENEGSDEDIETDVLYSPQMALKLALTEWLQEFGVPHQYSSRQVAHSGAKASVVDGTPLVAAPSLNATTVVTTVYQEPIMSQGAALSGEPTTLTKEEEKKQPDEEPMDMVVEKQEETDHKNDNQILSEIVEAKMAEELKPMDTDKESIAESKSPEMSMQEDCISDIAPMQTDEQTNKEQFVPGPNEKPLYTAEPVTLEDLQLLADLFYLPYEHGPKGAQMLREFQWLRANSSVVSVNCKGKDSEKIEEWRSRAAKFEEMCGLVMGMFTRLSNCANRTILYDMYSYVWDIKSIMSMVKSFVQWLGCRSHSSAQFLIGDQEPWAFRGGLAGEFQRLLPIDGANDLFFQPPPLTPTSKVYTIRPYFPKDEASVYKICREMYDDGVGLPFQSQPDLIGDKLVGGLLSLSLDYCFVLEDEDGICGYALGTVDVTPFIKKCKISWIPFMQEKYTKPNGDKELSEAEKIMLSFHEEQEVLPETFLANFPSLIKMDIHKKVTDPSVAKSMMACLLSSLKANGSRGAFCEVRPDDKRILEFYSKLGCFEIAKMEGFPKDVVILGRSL

[3] = target: T1, Chitooligosaccharidolytic beta-N-acetylglucosaminidase (Ostrinia furnacalis); assay: Inhibition of Ostrinia furnacalis Hex1 expressed in Pichia pastoris at 200 uM using varying levels of 4-MU-GlcNAc as substrate measured after 30 mins by fluorescence assay relative to control
[4] = target: T3, Chitooligosaccharidolytic beta-N-acetylglucosaminidase (Ostrinia furnacalis, UniProt Q06GJ0); assay: Inhibition of Ostrinia furnacalis Hex1 expressed in Pichia pastoris using varying levels of 4-MU-GlcNAc as substrate measured after 30 mins by fluorescence assay
T3 sequence (Q06GJ0 whole entry): T1 sequence (whole entry)

Protein O-GlcNAcase = target: T4, Protein O-GlcNAcase (Homo sapiens, UniProt O60502); assay: Inhibition of recombinant human OGA expressed in Escherichia coli BL21(DE3) using varying levels of 4-MU-GlcNAc as substrate measured after 30 mins by fluorescence assay
T4 sequence (O60502 whole entry): T2 sequence (whole entry)

[5] = target: T2, Protein O-GlcNAcase (Homo sapiens); assay: Inhibition of recombinant human OGA expressed in Escherichia coli BL21(DE3) at 200 uM using 4-MU-GlcNAc as substrate measured after 30 mins by fluorescence assay relative to control

SMILES	inhibition [1] [%]	inhibition [2] [%]	inhibition [3] [%]	pKi [4]	pKi (Protein O-GlcNAcase)	inhibition [5] [%]
CC(=O)N[C@@H]1[C@@H](O)[C@H](O)[C@@H](CO)O[C@H]1SCCC(=O)NCCCCN1C(=O)c2cccc3cccc(c23)C1=O	26.9	34.3				
CC(=O)N[C@@H]1[C@@H](O)[C@H](O)[C@@H](CO)O[C@H]1S	0	12				
CC(=O)N[C@@H]1[C@@H](O)[C@H](O)[C@@H](CO)O[C@H]1SCCC(=O)NCCCN1C(=O)c2cccc3cccc(c23)C1=O	25.3	59.4				
CC(=O)N[C@@H]1[C@@H](O)[C@H](O)[C@@H](CO)O[C@H]1SCCCCCn1cc(CN2C(=O)c3cccc4cccc(c34)C2=O)nn1	91.9	26				
CC(=O)N[C@@H]1[C@@H](O)[C@H](O)[C@@H](CO)O[C@H]1SCC(=O)NN1C(=O)c2cccc3cccc(c23)C1=O	24.9	31.1				
CC(=O)N[C@@H]1[C@@H](O)[C@H](O)[C@@H](CO)O[C@H]1SCC(=O)NCCN1C(=O)c2cccc3cccc(c23)C1=O	18.4	38.6				
CC(=O)N[C@@H]1[C@@H](O)[C@H](O)[C@@H](CO)O[C@H]1SCn1cc(CN2C(=O)c3cccc4cccc(c34)C2=O)nn1	17.9	18.5				
CC(=O)N[C@@H]1[C@@H](O)[C@H](O)[C@@H](CO)O[C@H]1SCCCCn1cc(CN2C(=O)c3cccc4cccc(c34)C2=O)nn1	89.9	25.1				
CC(=O)N[C@@H]1[C@@H](O)[C@H](O)[C@@H](CO)O[C@H]1SCCn1cc(CN2C(=O)c3cccc4cccc(c34)C2=O)nn1	84	27.8				
CC(=O)N[C@@H]1[C@@H](O)[C@H](O)[C@@H](CO)O[C@H]1SCCCn1cc(CN2C(=O)c3cccc4cccc(c34)C2=O)nn1	81.6	22.7				
NN1C(=O)c2cccc3cccc(c23)C1=O	28.1	22.2				
CC(=O)N[C@@H]1[C@@H](O)[C@H](O)[C@@H](CO)O[C@H]1SCC(=O)NCCCCN1C(=O)c2cccc3cccc(c23)C1=O	29.1	50				
CC(=O)N[C@@H]1[C@@H](O)[C@H](O)[C@@H](CO)O[C@H]1SCC(=O)NCCCN1C(=O)c2cccc3cccc(c23)C1=O	29.2	97.6	< 50	< 3.70		
CC(=O)N[C@H]1/C(=N/OC(=O)Nc2ccccc2)O[C@H](CO)[C@@H](O)[C@@H]1O	97.5	98.9				
CC(=O)N[C@@H]1[C@@H](O)[C@H](O)[C@@H](CO)O[C@H]1SCCCCCCn1cc(CN2C(=O)c3cccc4cccc(c34)C2=O)nn1	93.2	25.7		4.66	< 3.70	< 50
CC(=O)N[C@@H]1[C@@H](O)[C@H](O)[C@@H](CO)O[C@H]1SCCC(=O)NCCN1C(=O)c2cccc3cccc(c23)C1=O	25.8	66.9				
